{"source": "patent US9687456B2", "about": "“Nutritional compositions for modulating inflammation including exogenous vitamin K2” (NESTEC S.A., priority 2009, dated 2017)", "type_in_all_cases": "in vivo, Sprague-Dawley rats", "key": {"[1]": {"test_system": "IKKα/β (Ser176/180)", "experiment": "LPS-treated rats: gastrocnemius muscle immunoblot, phosphorylated IKKα/β", "settings": "oral 25 or 50 microgram daily over 7 days, LPS IP, compared to LPS treatment", "description": "(§1) Male Sprague-Dawley rats (175 g) are kept on a 12-h light:dark cycle with food (Harlan-Teklad Rodent Chow, Madison, Wis.) and water provided freely. Animals are administered daily doses of vitamin K2 (MK-7) or saline (control) via oral gavage over 7 days. Stock solutions of vitamin K2 are prepared containing 3.5 g/L HCO-60 and 1 g/L of […] in buffer A (0.15 M NaCl, 0.05 M Tris-HCl, pH 7.5). The K2 is dissolved by sonication during five pulses of 5 set with an amplitude of 6 pm. Solutions thus obtained are clear, homogeneous, and stable. […]\n(§2) Analysis of mTOR Signaling to eIFs—Gastrocnemius muscles are weighed and homogenized in 7 volumes of buffer containing 20 mM HEPES (pH 7.4), 100 mM potassium chloride, 0.2 mM EDTA, 2 mM EGTA, 50 mM sodium fluoride, 50 mM glycerophosphate, 0.1 mM phenylmethylsulfonyl fluoride, 1 mM benzamidine, 1 mM dithiothreitol (DTT), and 0.5 mM sodium vanadate. […] Samples are analyzed for the phosphorylation status of 4E-BP1 (Thr37) and ribosomal protein S6 (Ser 235/236), the anti-phosphospecific antibodies were obtained from Cell Signaling Technology, Beverly, Mass. Additionally, samples are analyzed for phosphorylated IKKα/β (Ser176/180; Cell Signaling Technology) and phosphorylated p65 (Ser536; Cell Signaling Technology)."}, "[2]": {"test_system": "plasma TNF-a", "experiment": "LPS-induced inflammation in rats: plasma TNF-a", "settings": "oral gavage 25 or 50 microgram daily over 7 days, LPS 0.5 mg/kg IP on Day 7, sacrifice four hours later, compared to LPS treated animals", "description": "(§3) Male Sprague-Dawley rats (175 g) are kept on a 12-h light:dark cycle with food (Harlan-Teklad Rodent Chow, Madison, Wis.) and water provided freely. Animals are administered daily doses of vitamin K2 (MK-7) or saline (control) via oral gavage over 7 days. Stock solutions of vitamin K2 are prepared containing 3.5 g/L HCO-60 and 1 g/L of […] in buffer A (0.15 M NaCl, 0.05 M Tris-HCl, pH 7.5). The K2 is dissolved by sonication during five pulses of 5 set with an amplitude of 6 pm. Solutions thus obtained are clear, homogeneous, and stable. Shortly before vitamin K administration the stock solutions are diluted five times with buffer A, leading to a final HCO-60 concentration of 0.7 g/L. Further dilutions (as required) are made with 0.7 g/L HCO-60 in buffer A. Each dilution step is followed by sonication as described above. In all cases vitamin K2 is administered to the rats in 0.5 mL samples, with either 25 or 50 microgram oral doses.\nOn the final day (Day 7), rodents are administered vitamin K2 and 2 hours later were given an IP dose of LPS (Escherichia coli serotype O111:B4, L2630, Sigma) intraperitoneally (0.5 mg/kg of body weight). Four hours later animals are sacrificed."}, "[3]": {"test_system": "NFκB p65 (Ser536)", "experiment": "LPS-treated rats: gastrocnemius muscle immunoblot, phosphorylated p65", "settings": "oral 25 or 50 microgram daily over 7 days, LPS IP, compared to LPS treatment", "description": "as §1, §2"}, "[4]": {"test_system": "ribosomal protein S6 (Ser 235/236)", "experiment": "LPS-treated rats: mTOR signaling to eIFs, ribosomal protein S6 phosphorylation in gastrocnemius muscle", "settings": "oral 25 or 50 microgram daily over 7 days, LPS IP, compared to LPS treatment", "description": "as §1, §2"}, "[5]": {"test_system": "mixed muscle protein synthesis", "experiment": "LPS-treated rats: fractional rate of mixed muscle protein synthesis (Ks), radioactive phenylalanine incorporation", "settings": "oral 25 or 50 microgram daily over 7 days, LPS IP, conditions of inflammatory sepsis, compared to LPS treatment", "description": "as §3, with “doses. […]” for “doses.”\nMeasurement of Protein Synthesis—The fractional rate of synthesis (Ks) is estimated from the rate of incorporation of radioactive phenylalanine into total mixed muscle protein using the specific radioactivity of serum phenylalanine as representative of the precursor pool. […]"}, "[6]": {"test_system": "4E-BP1 (Thr37)", "experiment": "LPS-treated rats: mTOR signaling to eIFs, 4E-BP1 phosphorylation in gastrocnemius muscle", "settings": "oral 25 or 50 microgram daily over 7 days, LPS IP, compared to LPS treatment", "description": "as §1, §2"}}}
{"smiles": "CC(C)=CCC/C(C)=C/CC/C(C)=C/CC/C(C)=C/CC/C(C)=C/CC/C(C)=C/CC/C(C)=C/CC1=C(C)C(=O)c2ccccc2C1=O", "note": "[K2, vitamin K2 (MK-7)]", "values": [{"measurement": "phosphorylation for IKKα/β", "setting": "[1]", "value": "significant blunting of the drop in phosphorylation"}, {"measurement": "rise of plasma TNF-a", "setting": "[2]", "value": "significant decrease in the rise"}, {"measurement": "NFκB p65 induction", "setting": "[3]", "value": "significant blunting"}, {"measurement": "ribosomal protein S6 phosphorylation", "setting": "[4]", "value": "abrogates the decrease"}, {"measurement": "fractional rate of mixed muscle protein synthesis", "setting": "[5]", "value": "greater preservation"}, {"measurement": "4E-BP1(Thr-37) phosphorylation", "setting": "[6]", "value": "abrogates the decrease"}]}
